We go through one compound from the NIST ThermoML archive (doi:10.1016/j.jct.2004.01.006).

± gives the expanded uncertainty stated by the source.

For the data set the following is noted: Crystal; Adiabatic calorimetry.

For the compound `O=Cc1ccc(Cl)cc1Cl` [2,4-dichlorobenzaldehyde], the Triple point temperature was found to be 347.24 ± 0.27 K.
